For three compounds, IC50 results are on record in USRE36736E, “Substituted pyrroles” (Hoffman-La Roche Inc., priority 1998, dated 2000).

Structures are written as SMILES.

The target of this assay is protein kinase C. Briefly: inhibition of protein kinase C in vitro (protein kinase-induced incorporation of 32P from [γ-32P]ATP into histone). The assay is classed as biochemical. To be noted: histone substrate, read-out: IC50: concentration which reduces by 50% the protein kinase-induced incorporation of ^32 P from [γ-^32 P]ATP into histone. From the text: The IC50 figures in the following Table, represent that concentration of test compound which reduces by 50% the protein kinase-induced incorporation of ^32 P from [γ-^32 P]ATP into histone.
`Cn1cc(C2=C(c3cn(CCC(N)=O)c4ccccc34)C(=O)NC2=O)c2ccccc21` [3-[1-(2-carbamoylethyl)-3-indolyl]-4-(1-methyl-3-indolyl)-1H-pyrrole-2,5-dione]: the IC50 came to 500 nM.

In the case of `Cn1cc(C2=C(c3cn(CCCN=C=S)c4ccccc34)C(=O)NC2=O)c2ccccc21` [3-[1-(3-isothiocyanatopropyl)-3-indolyl]-4-(1-methyl-3-indolyl)-1H-pyrrole-2,5-dione], the IC50 was 8 nM.

For the compound `Cn1cc(C2=C(c3cn(CCCSC(=N)N)c4ccccc34)C(=O)NC2=O)c2ccccc21` [3-[1-[3-(amidinothio)propyl]-3-indolyl]-4-(1-methyl-3-indolyl)-1H-pyrrole-2,5-dione], the IC50 turned out to be 10 nM.
